The source of these data is patent US20030187056A1, “Live cell procedures to identify to identify compounds modulating intracellular distribution of phosphodiesterase( pde) enzymes” (priority 2000, published 2003).

Usually EC50 stands for the concentration that produces a half-maximal response.

The experiment addresses T1, HSPDE4A4-EGFP (Homo sapiens, UniProt P27815).
T1 construct: expressed in transfected cells
Description: Spot formation in CHO cells transfected with HSPDE4A4-EGFP. The conditions noted are these: for cells with spots: clonal. Format: cell-based.

T1 sequence (P27815 whole entry): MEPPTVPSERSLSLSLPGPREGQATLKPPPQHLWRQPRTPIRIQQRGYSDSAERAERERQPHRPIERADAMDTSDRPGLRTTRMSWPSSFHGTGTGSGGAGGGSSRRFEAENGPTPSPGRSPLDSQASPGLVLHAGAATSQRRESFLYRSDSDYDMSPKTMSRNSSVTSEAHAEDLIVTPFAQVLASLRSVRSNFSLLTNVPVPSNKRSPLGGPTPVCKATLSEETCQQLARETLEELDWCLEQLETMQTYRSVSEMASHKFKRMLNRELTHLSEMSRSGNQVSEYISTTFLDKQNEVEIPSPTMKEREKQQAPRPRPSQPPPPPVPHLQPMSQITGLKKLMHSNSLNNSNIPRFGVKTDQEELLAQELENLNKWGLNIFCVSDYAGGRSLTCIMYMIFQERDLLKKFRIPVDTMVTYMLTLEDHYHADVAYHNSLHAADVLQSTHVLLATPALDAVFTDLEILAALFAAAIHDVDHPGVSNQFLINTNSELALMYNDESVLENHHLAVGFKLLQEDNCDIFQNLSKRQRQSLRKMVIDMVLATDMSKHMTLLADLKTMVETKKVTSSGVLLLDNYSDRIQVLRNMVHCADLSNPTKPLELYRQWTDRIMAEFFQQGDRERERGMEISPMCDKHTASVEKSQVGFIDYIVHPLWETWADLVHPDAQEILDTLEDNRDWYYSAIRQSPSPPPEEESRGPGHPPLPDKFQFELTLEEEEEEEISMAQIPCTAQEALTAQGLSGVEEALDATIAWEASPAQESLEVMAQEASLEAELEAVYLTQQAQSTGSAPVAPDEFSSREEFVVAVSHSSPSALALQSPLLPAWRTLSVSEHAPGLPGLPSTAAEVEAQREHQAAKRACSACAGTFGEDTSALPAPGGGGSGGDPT

Turning to `O=c1c2cccnc2n(-c2cccc([N+](=O)[O-])c2)c(=O)n1Cc1ccncc1` [RS25344], the cells with spots entry is, setting by setting: (0.03 μM RS25344, 24.5 hours) “about 40%”; (0.03 μM RS25344, 24.5 hours, listed as RS 25344) “approximately 40%”; (1 μM RS25344, 24.5 hours) “more than 95%”. In addition, for the setting “clonal CHO, 23.5 hours, 4-parameter Hill fit, read-out: EC50 spot formation (spots per cell)”, the EC50 turned out to be 17 nM. Also, the “Formation of PDE4A4 spots” value (yes/no) is reported as “yes”.
